Reference: patent publication US4512924A, “Pyridazo[1,2-a][1,2]diazepines” (Hoffmann-La Roche Inc., priority 1982, dated 1985)

Target: T1, angiotensin converting enzyme (Oryctolagus cuniculus, UniProt P12822)
T1 sequence (P12822 34-1310): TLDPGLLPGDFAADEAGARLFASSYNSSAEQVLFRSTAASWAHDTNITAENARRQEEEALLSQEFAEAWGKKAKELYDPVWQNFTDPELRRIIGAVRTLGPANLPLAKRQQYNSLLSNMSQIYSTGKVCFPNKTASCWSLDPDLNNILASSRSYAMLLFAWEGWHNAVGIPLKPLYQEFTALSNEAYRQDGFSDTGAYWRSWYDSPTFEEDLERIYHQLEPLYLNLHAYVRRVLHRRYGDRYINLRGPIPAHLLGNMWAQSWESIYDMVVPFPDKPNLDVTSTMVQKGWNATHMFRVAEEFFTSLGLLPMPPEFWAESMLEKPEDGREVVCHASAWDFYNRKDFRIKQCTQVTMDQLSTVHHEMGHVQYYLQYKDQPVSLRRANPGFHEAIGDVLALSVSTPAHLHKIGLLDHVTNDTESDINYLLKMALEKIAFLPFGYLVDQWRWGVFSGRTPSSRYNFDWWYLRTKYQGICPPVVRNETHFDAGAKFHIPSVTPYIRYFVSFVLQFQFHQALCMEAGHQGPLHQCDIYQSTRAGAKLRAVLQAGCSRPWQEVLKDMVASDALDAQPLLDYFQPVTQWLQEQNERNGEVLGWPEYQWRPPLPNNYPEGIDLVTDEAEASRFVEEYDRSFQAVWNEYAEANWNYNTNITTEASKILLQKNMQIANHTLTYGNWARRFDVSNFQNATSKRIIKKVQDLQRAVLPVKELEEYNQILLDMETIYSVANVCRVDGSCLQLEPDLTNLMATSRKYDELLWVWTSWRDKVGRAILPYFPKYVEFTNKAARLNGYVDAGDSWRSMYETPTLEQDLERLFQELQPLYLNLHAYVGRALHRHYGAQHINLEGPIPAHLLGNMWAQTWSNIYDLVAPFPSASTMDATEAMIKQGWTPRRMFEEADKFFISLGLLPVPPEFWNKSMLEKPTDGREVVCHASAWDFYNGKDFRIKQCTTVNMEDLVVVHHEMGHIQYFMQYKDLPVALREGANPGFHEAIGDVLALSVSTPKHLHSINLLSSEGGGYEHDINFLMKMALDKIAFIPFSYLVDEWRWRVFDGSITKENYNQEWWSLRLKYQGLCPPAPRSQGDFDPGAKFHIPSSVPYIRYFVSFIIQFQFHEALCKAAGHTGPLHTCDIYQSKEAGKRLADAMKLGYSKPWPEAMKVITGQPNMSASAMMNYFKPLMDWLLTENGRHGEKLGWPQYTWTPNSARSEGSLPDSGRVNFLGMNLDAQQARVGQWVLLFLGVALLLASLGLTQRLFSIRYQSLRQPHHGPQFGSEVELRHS
Test: in vitro inhibition of angiotensin converting enzyme (cleavage of hippuryl-histidyl-leucine)
Format: biochemical
Conditions: hippuryl-histidyl-leucine 2 mM, potassium phosphate buffer pH 8.3, 100 mM, NaCl 300 mM, 24 minutes at 37° C., read-out: IC50 (concentration of test substance which reduces by 50% the cleavage of hippuryl-histidyl-leucine by angiotensin converting enzyme)
Protocol: The activity of the present compounds in inhibiting angiotensin converting enzyme in vitro can be determined by the following test.
The method used is based on the method of Cushman and Cheung (Biochem. Pharmacol., 20. 1637-1648) incorporating the modifications introduced by Hayakari et al (Anal. Biochem., 84. 361-369). The substrate (hippuryl-histidyl-leucine, 2 mM) is incubated with angiotensin converting enzyme in the presence or absence of various concentrations of test substance in potassium phosphate buffer (pH 8.3; 100 mM) containing sodium chloride (300 mM) for 24 minutes at 37° C. (total value 500 μl). (If the test substance is an ester, it is appropriate to cleave it by means of hog liver esterase before carrying out the test). The reaction is terminated by the addition of 3 ml of potassium phosphate buffer (pH 8.3; 200 mM) at 0° C. 2,4,6-Trichloro-s-triazine (3%) in 1.5 ml of dioxane is added and the mixture is agitated until the yellow chromophore has developed fully. The samples are then centrifuged to remove any precipitate which has formed. The yellow chromophore formed by the reaction of the 2,4,6-trichloro-s-triazine with free hippuric acid is measured spectrophotometrically at 382 nm. IC50 values are defined as the concentration of test substance which reduces by 50% the cleavage of hippuryl-histidyl-leucine by angiotensin converting enzyme under the aforementioned conditions.
The results obtained in the foregoing test using representative compounds of formula I as the test substance are compiled in the following Table.

In order of falling IC50:
1. O=C(O)C(CCc1ccccc1)NC1CCN2CCCC(C(=O)O)N2C1=O (racemic) [Compound C, 8-(1-Carboxy-3-phenylpropylamino)-octahydro-9-oxopyridazo[1,2-a]pyridazine-1-carboxylic acid]  55 nM
2. O=C(O)C(Cc1ccccc1)N[C@H]1CCC(=O)N2CCC[C@@H](C(=O)O)N2C1=O (mixture of isomers) [Compound E, 9(S)-[1(R and S)-carboxy-2-phenylethylamino]-octahydro-6,10-dioxo-6H-pyridazo[1,2-a][1,2]diazepine-1(S)-carboxylic acid]  26 nM
3. O=C(O)C(CCc1ccccc1)N[C@H]1CC(=O)N2CCCC(C(=O)O)N2C1=O (single isomer, unassigned) [Compound B]  22 nM
4. CC(C)CCC(N[C@H]1CCC(=O)N2CCC[C@@H](C(=O)O)N2C1=O)C(=O)O (mixture of isomers) [Compound F, 9(S)-[1(R and S)-carboxy-4-methylpentylamino]-octahydro-6,10-dioxo-6H-pyridazo[1,2-a][1,2]diazepine-1(S)-carboxylic acid]  12 nM
5. O=C(O)C(CCCc1ccccc1)N[C@H]1CCC(=O)N2CCC[C@@H](C(=O)O)N2C1=O (mixture of isomers) [Compound D, 9(S)-[1(R and S)-carboxy-4-phenylbutylamino]-octahydro-6,10-dioxo-6H-pyridazo[1,2-a][1,2]diazepine-1(S)-carboxylic acid]  11 nM
6. O=C(O)C(CCc1ccccc1)N[C@H]1CCC(=O)N2CCC[C@@H](C(=O)O)N2C1=O (single isomer, unassigned) [Compound A]  4.2 nM
